Values of other authors in article PMC3468400, “Pharmacokinetic profiles of artesunate following multiple intravenous doses of 2, 4, and 8 mg/kg in healthy volunteers: Phase 1b study” (Malaria Journal, 2012).

Settings: human, in vivo, cited from earlier work

In the case of `C[C@H]1[C@H](OC(=O)CCC(=O)O)O[C@@H]2O[C@@]3(C)CC[C@H]4[C@H](C)CC[C@@H]1[C@@]24OO3` [AS, 4-(10’dihydro-artemisinin-oxymethyl) succinate], the “mean peak level (Cmax)” value (iv) is given as 11,343 ng/ml and the Cmax (po) is given as 1052 ng/mL.
